Assay results: patent publication US20200316077A1, “PHARMACEUTICAL COMPOSITION FOR THE TREATMENT OF CANCER” (IMPETIS BIOSCIENCES LTD., priority 2017, published 2020)

Experiments:
[1] = test system: 4T1 cells (breast cancer); experiment: 4T1 Breast Cancer Model: tumor suppression in mice; format: in vivo; conditions: BALB/c mice, 3 mg/kg, PO, BID, Day 28, n = 12
Description: (§1) Tumor Suppression Activity of Adenosine A2A (Compound 31) and A2B (Compound 169) Antagonists in Xenograft Models of Cancer
(§2) General Protocol: 6-8 weeks old BALB/c mice were acclimated and on Day 1 of the study, the mice were injected with 50 μL of medium containing 5×10^4 4T1 cells (breast cancer) or 5×10^5 CT26 cells (colon cancer). On day 8 or 9, the mice were segregated into different groups and treated orally with either vehicle (1% Tween-80+0.5% Carboxymethylcellulose in water) or test compound [(Compound 32 5-Amino-3-[2-[4-[2-fluoro-4-(2-methoxyethoxy)phenyl]piperazin-1-yl]ethyl]-8-(2-furyl)-1-methyl-[1,2,4]triazolo[5,1-f]purin-2-one (32) & Phosphoric acid mono-{2-cyano-6-oxo-1-propyl-8-[1-(3-trifluoromethyl-benzyl)-1H-pyrazol-4-yl]-1,6-dihydro-purin-7-ylmethyl} ester (335)] in vehicle. The treatment was BID for 22 days (colon cancer) or 28 days (breast cancer). At the end of the study, the tumor volume was measured as (length X breadth)/2. Data were presented as % reduction compared to the tumor volume in vehicle treated animals.

[2] = test system: CT26 cells (colon cancer); experiment: CT26 Colon Cancer Model: tumor suppression in mice; format: in vivo; conditions: BALB/c mice, 3 mg/kg, PO, BID, Day 22, n = 12
Description: as §1, §2

CCCn1c(C#N)nc2nc(-c3cnn(Cc4cccc(C(F)(F)F)c4)c3)n(COP(=O)(O)O)c2c1=O [Compound 335, Phosphoric acid mono-{2-cyano-6-oxo-1-propyl-8-[1-(3-trifluoromethyl-benzyl)-1H-pyrazol-4-yl]-1,6-dihydro-purin-7-ylmethyl} ester]
% decrease in Tumor growth vs. vehicle On Day 28 [1]: 46.40% | % decrease in Tumor growth vs. vehicle On Day 22 [2]: 23.90%
